Laboratory results from patent US6608189B1, “Fluorescent protein sensors for measuring the pH of a biological sample” (University of California, priority 1998, dated 2003).

Legend:
[1] = system: mitochondria of HeLa cells; assay: GFP T203I as pH-insensitive reference in mitochondria of HeLa cells; assay type: cell-based; settings: control experiments
Description: To identify a GFP sensor protein suitable for use as a reference protein for measuring mitochondrial matrix pH, the GFP mutant T203I was expressed in the mitochondria of HeLa cells.
Fluorescence of HeLa cells transfected with the GFP T203I mutant was monitored for about 400 seconds using an excitation ratio of 480 nm/400 nm. 10 μM CCCP was then added to the cells, and fluorescence was monitored for an additional 250 seconds. […] In control experiments, it was observed that addition of CCCP corresponded to a drop in pH of about 1 unit. Thus, the GFP T203I mutant is suitable for use as a reference, pH-insensitive mutant.

[2] = system: mitochondrial matrix of HeLa cells; assay: pH in the mitochondrial matrix with EYFP-mito; assay type: cell-based; settings: HeLa cells expressing EYFP-mito
Description: To measure pH in the mitochondrial matrix using mutant GFP sensor proteins, HeLa cells and neonatal rat cardiomyocytes were transfected with the fluorescent protein pH sensor EYFP-mito. A Bio-Rad MRC-1000 confocal microscope was used for analysis of the targeted protein. […] In situ pH titration was performed with nigericin/monensin as described in Example 3.

[3] = system: mitochondrial matrix of chick skeletal myotubes; assay: mitochondrial matrix pH with mito-YFP H148G in chick skeletal myotubes; assay type: cell-based; settings: 2 uM, t about 1400 seconds
Description: Fluorescence was also examined, and pH measured, in primary cultures of chick skeletal myotubes transfected with the mito-YFP H148G mutant. […] Thereafter fluorescence continued to be observed during calibration at ph 6.9, 7.6 and 8.0.

[4] = system: mitochondrial matrix of HeLa cells; assay: mitochondrial matrix pH with mito-YFP H148G in HeLa cells; assay type: cell-based; settings: 5 uM
Description: YFP H148G expression was monitored by observing fluorescence over time. Mitochondrial pH was also monitored by pH titration as described in Example 3 using nigericin and monensin.
5 μM CCCp was added at about t≈300 seconds. […] Then a calibration was performed by perfusing the cells with extracellular medium of pH 7, 7.5, 8, and 8.35 containing the ionophores nigericin plus monensin to equilibrate mitochondrial pH and extracellular pH. Fluorescence in mitochondria increased stepwise with each change of extracellular pH.

HeLa cells = assay: pH in cytosol and nucleus of cells expressing EYFP; assay type: cell-based; settings: reversible on wash-out
Description: HeLa cells and AT-20 cells grown on glass coverslips were transiently lipo-transfected (Lipofectin™, GIBCO) with polynucleotide constructs encoding EYFP.
(§1) Cells were imaged between 2 and 4 days after transfection at 22° C. with a cooled charge-coupled device camera (Photometrices, Tucson, Ariz.) as described in Miyawaki et al., Nature 388:882, (1997). The interference filters (Omega Optical and Chroma Technology, Brattleboro, Vt.) used for excitation and emission were 440 ECFP; 480 535 EGFP or EYFP. The dichroic mirrors were 455 DCLP for ECFP and 505 DCLP for EGFP or EYFP. Regions of interest were selected manually, and pixel intensities were spatially averaged after background subtraction. A binning of 2 was used to improve signal/noise and minimize photodamage and photoisomerization of EYFP. High KCl buffer plus 5 μM each of the ionophores nigericin (Fluka) and monensin (Calbiochem) was used for in situ titrations in living cells. Cells were loaded with cytosolic pH indicators by incubation with 3 μM carboxy-SNARF/AM or BCECF/AM (Molecular Probes) for 45 minutes, then washed for 30 minutes, all at 22° C.
Calibration of fluorescence intensity with pH in situ was accomplished with a mix of the alkali cation/H+ ionophores nigericin and monensin in bath solutions of defined pH and high K+. Fluorescence equilibrated within 1-4 minutes after each exchange of solution.

macrophage phagosomes = settings: cited from earlier work
[5] = system: Golgi lumen of HeLa cells; assay: pH in the Golgi lumen with GT-EYFP; assay type: cell-based; settings: HeLa cells expressing GT-EYFP
Description: as §1
The pH of the Golgi lumen was measured by transfecting HeLa or AT-20 cells with the constructs GT-ECFP, GT-EGFP, or GT-EYFP. Bright juxtanuclear fluorescence was observed, with little increase in diffuse staining above autofluorescnce in most cells.
The pH gradient across the Golgi membrane is maintained by the electrogenic ATP-dependent H^+ pump (V-ATPase). The V-ATPase generates a ΔpH (acidic inside) and Δψ(positive inside), which opposes further H^+ transport. The movement of counter-ions, Cl^− in (or K^+ out), with H^+ uptake would shunt the Δψ, allowing a larger ΔpH to be generated. These mechanisms were investigated in intact single HeLa cells transfected with GT-EYFP.

[6] = system: Golgi lumen of HeLa cells; assay: ratiometric Golgi pH with GT-EYFP and GT-ECFP; assay type: cell-based; settings: cotransfected HeLa cells
Description: Quantitative measurements of fluorescence with nonratiometric indicators can suffer from artifacts as a result of cell movement or focusing. To correct for these effects, the cyan-emitting mutant GT-ECFP was co-transfected into cells along with GT-EYFP. ECFP has excitation and emission peaks that can be separated from those of EYFP by appropriate filters. In addition, ECFP is less pH-sensitive than EYFP (see FIG. 2B).
Although the ratio of EYFP to ECFP emission varied between cells, probably reflecting a different concentration of GT-EYFP and GT-ECFP in the Golgi lumen, it changed with pH as expected (FIG. 3B). Bafilomcin A1 raised the GT-EYFP/GT-ECFP emission ratio, i.e, it raised pHG.

[7] = system: mitochondrial matrix of HeLa cells; assay: mitochondrial matrix pH with mito-YFP H148Q in HeLa cells; assay type: cell-based; settings: 10 uM in high KCl titration buffer
Description: The YFP H148Q mutant has a pKa of about 7.4, which is intermediate between the pKa of EYFP and YFP mutant H148G. […] Fluorescence was measured over time (beginning at t≈0), including following the addition of 10 μM nigericin in high KCL titration buffer at t≈500 seconds.
Fluorescence decreased to about 175 units at t=1000 seconds by addition of nigericin, which lowered the pH to about 6.9. Fluorescence then returned stepwise to 400 units with each change of the extracellular medium.

[8] = molecular target: YFP (yellow fluorescent protein; GFP quadruple mutant T203Y/S65G/V68L/S72A, also carrying Q80R) (Aequorea victoria) [GFP: P42212]; assay: X-ray crystal structure of YFP, largest contact area with an adjacent molecule

N#CC(C#N)=NNc1cccc(Cl)c1 [CCCP, carbonylcyanide m-chlorophenylhydrazone]
drop in pH on addition [1]: about 1 unit | mitochondrial pH after acidification by the protonophore [2]: ~7 | mitochondrial pH after addition [3]: 6.9 | mitochondrial pH after addition [4]: 7.0

Cl.N [NH4Cl]
change of EYFP fluorescence (pH) on perfusion (HeLa cells): increase in fluorescence

CO/C1=C\C(C)=C\[C@@H](C)[C@@H](O)[C@@H](C)C/C(C)=C/C=C/[C@H](OC)[C@@H]([C@@H](C)[C@@H](O)[C@H](C)[C@@]2(O)C[C@@H](O)[C@H](C)[C@@H](C(C)C)O2)OC1=O [bafilomycin A1]
rate of alkalinization reported for other acidic compartments (macrophage phagosomes): 0.09 pH/min | increase of pHG ([5]; 0.2 uM): about 0.6 units | pHG after treatment ([5]; 0.2 uM, n=12 cells): 7.16 | initial rate of Golgi alkalinization ([5]; n=12 cells): 0.52 pH units per minute | GT-EYFP/GT-ECFP emission ratio (pHG) [6]: raised

CC(O)C(=O)O (stereo not shown) [lactate]
change of EYFP fluorescence (pH) on perfusion (HeLa cells): decrease in fluorescence

CO[C@@H]1C[C@@H](C[C@H]2CC[C@H](C)[C@H]([C@@H](C)C(=O)O)O2)O[C@]2(O[C@](C)([C@H]3CC[C@@](C)([C@@H]4O[C@@H]([C@H]5O[C@@](O)(CO)[C@H](C)C[C@@H]5C)C[C@@H]4C)O3)C[C@H]2C)[C@@H]1C [nigericin]
mitochondrial pH after addition [7]: about 6.9

YFP (yellow fluorescent protein; GFP quadruple mutant T203Y/S65G/V68L/S72A, also carrying Q80R) (from UniProt P42212 1-238)
contact area on one monomer surface [8]: 722 Å2
